Experimental data from patent US20220184220A1, “XYLOGLUCAN-CONTAINING PRODRUGS AND METHODS OF MANUFACTURE AND USE THEREOF” (priority 2019, published 2022).
“Also recorded” adds a separate entry of the source.

Columns and labels:
[1] = tested on: acute self-limiting colitis in mice; test: Histological scoring of inflammation, C. rodentium colitis in germ-free mice colonized with B. ovatus (Example 3); type: in vivo; details: n=2; for Crypt Height / Epithelia Hyperplasia / Epithelial Injury / Fibrosis / Globlet cell / Inflamm / Mitotic Act.: gavage 3 days, prednisolone forms 1 mg/kg/day, dexamethasone forms 0.6 mg/kg/day; for Total Score: sum of each scoring category
[2] = tested on: acute self-limiting colitis in mice; test: Gross visual observations of the murine abdomen (Example 3); type: in vivo; details: necropsy after 3 days of steroid gavage
Text: Under isoflurane anesthesia, mice were terminally bled by cardiac puncture and then humanely euthanized by cervical dislocation. All collected blood was separated into serum that was dedicated for steroid detection and optimization of steroid detection procedures. Following euthanasia, a midline laparotomy was made and gross observations of the abdominal regions were photo-documented. Approximately 1 cm sections of the cecum, and the most proximal and distal portions of the colon were divided for histological examination. Cecal and colonic tissues were flash frozen in liquid nitrogen for future immunological protein quantification. Digesta extracted from the colon was stored at −80° C. for future steroid detection, and fresh feces from the cages were used to enumerate Bacteroides ovatus and Citrobacter rodentium by microbiological techniques on the same day as the necropsy.

[3] = Dissolution of steroid in sterile water for gavage; type: physicochemical; details: dose in 100 μL gavage volume
Method: The average weight of the mice (27.9 g) was calculated on the second day of the Citrobacter rodentium infection, and this average weight was used to calculate the steroid concentrations for all treatments. The steroids were dissolved as best as possible in sterile water, and stored at 4° C. until needed. Steroids were administered by gavage in […] for 3 consecutive days at the same time each morning (24 hrs between treatments) for the final 3 days of the C. rodentium infection. Mice in the control groups (without drug intervention) received water by gavage in 100 μL volumes. Gavage needles for drug administration were coated in sucrose solution (1 g/mL, syringe-filter sterilized) as a refinement procedure.

[4] = tested on: acute self-limiting colitis in mice; test: Histological scoring of inflammation, C. rodentium colitis in mice with normal enteric microbiota (Example 7); type: in vivo; details: CR+/BO+ mice; prednisolone forms 1 mg/kg, dexamethasone forms 1.5 mg/kg (equivalent); one day following steroid treatment
Method: Approval to conduct this project was obtained from the AAFC LeRDC Animal Care Committee (Animal Use Protocol 1911). […] The methods employed were essentially the same as those described in Example 3, except that the Citrobacter rodentium (CR) was administered to incite acute self-limiting colitis in mice prior to colonization with Bacteroides ovatus (BO). […] FIG. 20 provides a schematic illustrating the study design and timelines.
As in the study described in Example 3, there were gross histopathological differences in the distal colon tissue obtained from mice in the different treatment groups. Histological scoring of inflammation was performed by a board-certified pathologist blinded to treatment. […] Following CR infection, with no treatment, neutrophil infiltration was evident and the histological score was 10. […] Evidence of enhanced amelioration of protein markers of inflammation were also observed. […] IL-12p70 is a pro-inflammatory cytokine involved in cell-mediated immunity. For example, it is known as a T cell-stimulating factor, which can stimulate the growth and function of T cells. Moreover, it stimulates the production of interferon-gamma (IFN-γ) and tumor necrosis factor-alpha (TNF-α) from T cells and natural killer (NK) cells, and reduces IL-4 mediated suppression of IFN-γ.

## C[C@]12C=CC(=O)C=C1CC[C@@H]1[C@@H]2[C@@H](O)C[C@@]2(C)[C@H]1CC[C@]2(O)C(=O)CO [prednisolone, reference compound]
[1]; cecal tissue
  Crypt Height: 1.5
  Epithelia Hyperplasia: 1.5
  Epithelial Injury: 1
  Fibrosis: 1
  Globlet cell: 0.5
  Inflamm: 1.5
  Mitotic Act.: 1
  Total Score: 8
[1]; distal colon
  Crypt Height: 1.5
  Epithelia Hyperplasia: 1.5
  Epithelial Injury: 2
  Fibrosis: 1.5
  Globlet cell: 0.5
  Inflamm: 1.5
  Mitotic Act.: 1.5
  Total Score: 10
[1]; proximal colon
  Crypt Height: 2
  Epithelia Hyperplasia: 1.5
  Epithelial Injury: 2
  Fibrosis: 0
  Globlet cell: 0.5
  Inflamm: 1.5
  Mitotic Act.: 1.5
  Total Score: 9
[2]
  blood present in ceca (gross observation): more blood present in ceca than dexamethasone treatment; also recorded: more blood in cecal area
[3]
  dissolution in water: did not fully dissolve in water
[4]
  histological score, distal colon: 18
